Tested on: Puccinia recondita tritici = Puccinia triticina (PUCCRT)
Assay: Fungicidal activity vs. leaf rust on wheat plants
Assay type: in vivo
Settings: wheat (Yuma) sprayed at 50 ppm, inoculated the following day, rated 7-9 days later, read-out: Puccinia Rating (% Disease Control @ 50 ppm)
Text: D. Evaluation of Fungicidal Activity vs. Leaf Rust (Causal Agent Puccinia Recondita Tritici=Puccinia Triticina; Bayer Code PUCCRT)
Each pot contained 3-8 seedlings. These plants were sprayed until wet with the formulated test compounds. The compounds were formulated at 50 ppm in 10 vol. % acetone plus 90 vol. % Triton X water (deionized water 99.99 wt %+0.01 wt % Triton X100), giving a “formulated test compound.” Formulated test compounds were applied to plants using a turn table sprayer fitted with two opposing air atomization nozzles which delivered approximately 1500 L/ha of spray volume. On the following day, the leaves were inoculated with an aqueous spore suspension of Puccinia recondita tritici and the plants were kept in high humidity overnight to permit spores to germinate and infect the leaf. The plants were then transferred to a greenhouse until disease developed on untreated control plants. Disease severity was evaluated 7-9 days later, depending on the speed of disease development.
In each case of Table 3, the Puccinia rating scale is as follows: […]

N#Cc1ccc(COc2ccc(C(F)(F)C(O)(Cn3cnnn3)c3ccc(F)cc3F)nc2)nc1 (stereo not drawn) [Compound 50, 6-(((6-(2-(2,4-Difluorophenyl)-1,1-difluoro-2-hydroxy-3-(1H-tetrazol-1-yl)propyl)pyridin-3-yl)oxy)methyl)nicotinonitrile]
pest or weed control at 50 ppm: 80 to 100%

N#Cc1cccc(COc2ccc(C(F)(F)C(O)(Cn3cnnn3)c3ccc(F)cc3F)nc2)c1 (stereo not drawn) [Compound 52, 3-(((6-(2-(2,4-Difluorophenyl)-1,1-difluoro-2-hydroxy-3-(1H-tetrazol-1-yl)propyl)pyridin-3-yl)oxy)methyl)benzonitrile]
pest or weed control at 50 ppm: 80 to 100%

OC(Cn1cnnn1)(c1ccc(Cl)cc1F)C(F)(F)c1ccc(OCC2CC2)cn1 (stereo not drawn) [Compound 54, 2-(4-Chloro-2-fluorophenyl)-1-(5-(cyclopropylmethoxy)pyridin-2-yl)-1,1-difluoro-3-(1H-tetrazol-1-yl)propan-2-ol]
pest or weed control at 50 ppm: 80 to 100%

N#Cc1ccc(COc2ccc(C(F)(F)C(O)(Cn3cnnn3)c3ccc(Cl)cc3F)nc2)cc1 (stereo not drawn) [Compound 55, 4-(((6-(2-(4-Chloro-2-fluorophenyl)-1,1-difluoro-2-hydroxy-3-(1H-tetrazol-1-yl)propyl)pyridin-3-yl)oxy)methyl)benzonitrile]
pest or weed control at 50 ppm: 80 to 100%

N#Cc1ccc(COc2ccc(C(F)(F)C(O)(Cn3cnnn3)c3ccc(F)cc3F)nc2)c(F)c1 (stereo not drawn) [Compound 57, 4-(((6-(2-(2,4-Difluorophenyl)-1,1-difluoro-2-hydroxy-3-(1H-tetrazol-1-yl)propyl)pyridin-3-yl)oxy)methyl)-3-fluorobenzonitrile]
pest or weed control at 50 ppm: 80 to 100%

N#Cc1ccc(F)c(COc2ccc(C(F)(F)C(O)(Cn3cnnn3)c3ccc(F)cc3F)nc2)c1 (stereo not drawn) [Compound 59, 3-(((6-(2-(2,4-Difluorophenyl)-1,1-difluoro-2-hydroxy-3-(1H-tetrazol-1-yl)propyl)pyridin-3-yl)oxy)methyl)-4-fluorobenzonitrile]
pest or weed control at 50 ppm: 80 to 100%

N#Cc1ccc(COc2ccc(C(F)(F)C(O)(Cn3cnnn3)c3ccc(Cl)cc3F)nc2)nc1 (stereo not drawn) [Compound 61, 6-(((6-(2-(4-Chloro-2-fluorophenyl)-1,1-difluoro-2-hydroxy-3-(1H-tetrazol-1-yl)propyl)pyridin-3-yl)oxy)methyl)nicotinonitrile]
pest or weed control at 50 ppm: 80 to 100%

N#Cc1cc(COc2ccc(C(F)(F)C(O)(Cn3cnnn3)c3ccc(F)cc3F)nc2)ccc1F (stereo not drawn) [Compound 65, 5-(((6-(2-(2,4-Difluorophenyl)-1,1-difluoro-2-hydroxy-3-(1H-tetrazol-1-yl)propyl)pyridin-3-yl)oxy)methyl)-2-fluorobenzonitrile]
pest or weed control at 50 ppm: 80 to 100%

N#Cc1cccc(COc2ccc(C(F)(F)C(O)(Cn3cnnn3)c3ccc(F)cc3F)nc2)c1F (stereo not drawn) [Compound 67, 3-(((6-(2-(2,4-Difluorophenyl)-1,1-difluoro-2-hydroxy-3-(1H-tetrazol-1-yl)propyl)pyridin-3-yl)oxy)methyl)-2-fluorobenzonitrile]
pest or weed control at 50 ppm: 80 to 100%

CC(C)COc1ccc(C(F)(F)C(O)(Cn2cnnn2)c2ccc(Cl)cc2F)nc1 (stereo not drawn) [Compound 69, 2-(4-Chloro-2-fluorophenyl)-1,1-difluoro-1-(5-isobutoxypyridin-2-yl)-3-(1H-tetrazol-1-yl)propan-2-ol]
pest or weed control at 50 ppm: 80 to 100%

OC(Cn1cnnn1)(c1ccc(Cl)cc1F)C(F)(F)c1ccc(OCC(F)(F)F)cn1 (stereo not drawn) [Compound 71, 2-(4-Chloro-2-fluorophenyl)-1,1-difluoro-3-(1H-tetrazol-1-yl)-1-(5-(2,2,2-trifluoroethoxy)pyridin-2-yl)propan-2-ol]
pest or weed control at 50 ppm: 80 to 100%

N#Cc1ccc(COc2ccc(C(F)(F)C(O)(Cn3cnnn3)c3ccc(F)cc3F)nc2)s1 (stereo not drawn) [Compound 73, 5-(((6-(2-(2,4-Difluorophenyl)-1,1-difluoro-2-hydroxy-3-(1H-tetrazol-1-yl)propyl)pyridin-3-yl)oxy)methyl)thiophene-2-carbonitrile]
pest or weed control at 50 ppm: 80 to 100%

OC(Cn1cnnn1)(c1ccc(F)cc1F)C(F)(F)c1ccc(Oc2ccc(C(F)(F)F)cc2)cn1 (stereo not drawn) [Compound 75, 2-(2,4-Difluorophenyl)-1,1-difluoro-3-(1H-tetrazol-1-yl)-1-(5-(4-(trifluoromethyl)phenoxy)pyridin-2-yl)propan-2-ol]
pest or weed control at 50 ppm: 80 to 100%

OC(Cn1cnnn1)(c1ccc(F)cc1F)C(F)(F)c1ccc(Oc2ccc(OC(F)(F)F)cc2)cn1 (stereo not drawn) [Compound 76, 2-(2,4-Difluorophenyl)-1,1-difluoro-3-(1H-tetrazol-1-yl)-1-(5-(4-(trifluoromethoxy)phenoxy)pyridin-2-yl)propan-2-ol]
pest or weed control at 50 ppm: 80 to 100%

OC(Cn1cnnn1)(c1ccc(F)cc1F)C(F)(F)c1ccc(Oc2cccc(F)c2)cn1 (stereo not drawn) [Compound 77, 2-(2,4-Difluorophenyl)-1,1-difluoro-1-(5-(3-fluorophenoxy)pyridin-2-yl)-3-(1H-tetrazol-1-yl)propan-2-ol]
pest or weed control at 50 ppm: 60 to 79%

N#Cc1cccc(Oc2ccc(C(F)(F)C(O)(Cn3cnnn3)c3ccc(F)cc3F)nc2)c1 (stereo not drawn) [Compound 78, 3-((6-(2-(2,4-Difluorophenyl)-1,1-difluoro-2-hydroxy-3-(1H-tetrazol-1-yl)propyl)pyridin-3-yl)oxy)benzonitrile]
pest or weed control at 50 ppm: 80 to 100%

N#Cc1ccc(Oc2ccc(C(F)(F)C(O)(Cn3cnnn3)c3ccc(Cl)cc3F)nc2)cc1 (stereo not drawn) [Compound 79, 4-((6-(2-(4-Chloro-2-fluorophenyl)-1,1-difluoro-2-hydroxy-3-(1H-tetrazol-1-yl)propyl)pyridin-3-yl)oxy)benzonitrile]
pest or weed control at 50 ppm: 80 to 100%

N#Cc1ccc(Oc2ccc(C(F)(F)C(O)(Cn3cnnn3)c3ccc(Cl)cc3F)nc2)cc1F (stereo not drawn) [Compound 81, 4-((6-(2-(4-Chloro-2-fluorophenyl)-1,1-difluoro-2-hydroxy-3-(1H-tetrazol-1-yl)propyl)pyridin-3-yl)oxy)-2-fluorobenzonitrile]
pest or weed control at 50 ppm: 80 to 100%

N#Cc1ccc(COc2ccc(C(F)(F)C(O)(Cn3ncnn3)c3ccc(F)cc3F)nc2)cc1 (stereo not drawn) [Compound 83, 4-(((6-(2-(2,4-Difluorophenyl)-1,1-difluoro-2-hydroxy-3-(2H-tetrazol-2-yl)propyl)pyridin-3-yl)oxy)methyl)benzonitrile]
pest or weed control at 50 ppm: 40 to 59%

OC(Cn1cnnn1)(c1ccc(F)cc1F)C(F)(F)c1ccc(Oc2cccc(Cl)c2)cn1 (stereo not drawn) [Compound 84, 1-(5-(3-Chlorophenoxy)pyridin-2-yl)-2-(2,4-difluorophenyl)-1,1-difluoro-3-(1H-tetrazol-1-yl)propan-2-ol]
pest or weed control at 50 ppm: 80 to 100%

COc1cccc(Oc2ccc(C(F)(F)C(O)(Cn3cnnn3)c3ccc(F)cc3F)nc2)c1 (stereo not drawn) [Compound 85, 2-(2,4-Difluorophenyl)-1,1-difluoro-1-(5-(3-methoxyphenoxy)pyridin-2-yl)-3-(1H-tetrazol-1-yl)propan-2-ol]
pest or weed control at 50 ppm: 80 to 100%

OC(Cn1cnnn1)(c1ccc(F)cc1F)C(F)(F)c1ccc(Oc2ccc(F)c(F)c2)cn1 (stereo not drawn) [Compound 86, 1-(5-(3,4-Difluorophenoxy)pyridin-2-yl)-2-(2,4-difluorophenyl)-1,1-difluoro-3-(1H-tetrazol-1-yl)propan-2-ol]
pest or weed control at 50 ppm: 80 to 100%

COc1ccc(Oc2ccc(C(F)(F)C(O)(Cn3cnnn3)c3ccc(F)cc3F)nc2)cc1 (stereo not drawn) [Compound 87, 2-(2,4-Difluorophenyl)-1,1-difluoro-1-(5-(4-methoxyphenoxy)pyridin-2-yl)-3-(1H-tetrazol-1-yl)propan-2-ol]
pest or weed control at 50 ppm: 80 to 100%

OC(Cn1cnnn1)(c1ccc(F)cc1F)C(F)(F)c1ccc(Oc2ccccc2F)cn1 (stereo not drawn) [Compound 88, 2-(2,4-Difluorophenyl)-1,1-difluoro-1-(5-(2-fluorophenoxy)pyridin-2-yl)-3-(1H-tetrazol-1-yl)propan-2-ol]
pest or weed control at 50 ppm: 80 to 100%

N#Cc1ccc(Oc2ccc(C(F)(F)C(O)(Cn3cnnn3)c3ccc(F)cc3F)nc2)c(F)c1 (stereo not drawn) [Compound 89, 4-((6-(2-(2,4-Difluorophenyl)-1,1-difluoro-2-hydroxy-3-(1H-tetrazol-1-yl)propyl)pyridin-3-yl)oxy)-3-fluorobenzonitrile]
pest or weed control at 50 ppm: 80 to 100%

OC(Cn1cnnn1)(c1ccc(F)cc1F)C(F)(F)c1ccc(Oc2ncc(C(F)(F)F)cc2Cl)cn1 (stereo not drawn) [Compound 92, 1-(5-((3-chloro-5-(trifluoromethyl)pyridin-2-yl)oxy)pyridin-2-yl)-2-(2,4-difluorophenyl)-1,1-difluoro-3-(1H-tetrazol-1-yl)propan-2-ol]
pest or weed control at 50 ppm: 80 to 100%

N#Cc1ccc(Oc2ccc(C(F)(F)C(O)(Cn3cnnn3)c3ccc(F)cc3F)nc2)nc1 (stereo not drawn) [Compound 93, 6-((6-(2-(2,4-difluorophenyl)-1,1-difluoro-2-hydroxy-3-(1H-tetrazol-1-yl)propyl)pyridin-3-yl)oxy)nicotinonitrile]
pest or weed control at 50 ppm: 80 to 100%

OC(Cn1cnnn1)(c1ccc(F)cc1F)C(F)(F)c1ccc(Oc2ccc(C(F)(F)F)cn2)cn1 (stereo not drawn) [Compound 94, 2-(2,4-difluorophenyl)-1,1-difluoro-3-(1H-tetrazol-1-yl)-1-(5-((5-(trifluoromethyl)pyridin-2-yl)oxy)pyridin-2-yl)propan-2-ol]
pest or weed control at 50 ppm: 80 to 100%

OC(Cn1cnnn1)(c1ccc(F)cc1F)C(F)(F)c1ccc(Oc2ccc(Cl)cn2)cn1 (stereo not drawn) [Compound 95, 1-(5-((5-chloropyridin-2-yl)oxy)pyridin-2-yl)-2-(2,4-difluorophenyl)-1,1-difluoro-3-(1H-tetrazol-1-yl)propan-2-ol]
pest or weed control at 50 ppm: 80 to 100%

N#Cc1cc(Oc2ccc(C(F)(F)C(O)(Cn3cnnn3)c3ccc(F)cc3F)nc2)ccn1 (stereo not drawn) [Compound 96, 4-((6-(2-(2,4-difluorophenyl)-1,1-difluoro-2-hydroxy-3-(1H-tetrazol-1-yl)propyl)pyridin-3-yl)oxy)picolinonitrile]
pest or weed control at 50 ppm: 60 to 79%

— patent US8796001B2, “Metalloenzyme inhibitor compounds” (Viamet Pharmaceuticals, Inc., priority 2011, dated 2014)
